Source: US20080219972A1, “Prostatic Acid Phosphatase (Pap) Materials and Methods of Use Thereof in the Prophylactic and Therapeutic Treatment of Prostate Cancer” (UNIVERSITY OF MARYLAND, BALTIMORE, priority 2005, published 2008)

System: CD4 T-cells from PBMC of HLA-DRB1*1501-positive GP patients and normal male donors
Test: Human CD4 T-cell line responses to PAP polypeptides (IFN-γ ELISPOT, proliferation assay, IFN-γ ELISA)
Format: cell-based
Description: The PAP polypeptides identified above were tested in human cultures. CD4 T-cell lines, which were specific for polypeptide 15 or polypeptide 19, were established from PBMC of HLA-DRB1*1501-positive GP patients and normal male donors by repeated stimulations with the polypeptide 19. After two rounds of in vitro stimulation, T-cells were plated at 2×10^4 cells/well in 96-well, round-bottomed plates, and stimulated by irradiated autologous PBMC in the presence/absence of polypeptide 19 or control polypeptide 15.
No polypeptide-specific responses were detected in primary PBMC cultures by IFN-γ ELISPOT, proliferation assay, or IFN-γ ELISA. When CD4 T-cells were stimulated with polypeptide […], cells from three of five GP patients and three of four normal male donors responded to the specific peptide in secondary cultures.
The HLA restriction of the cell line was confirmed using an immortalized B-cell line derived from a patient with type II Bare Lymphocyte Syndrome (BLC cells) and engineered to express HLA-DRB1*1501.
A CD4 T-cell line, which was developed from patient Pr131 by repeated stimulation with polypeptide 19, recognized human and mouse homolog polypeptides.

Question: “ESEEFLKRLHPYKSFLD TLS (ESEEFLKRLHPYKSFLDTLS; listed as Mus musculus) [mouse homolog, mouse polypeptide corresponding to human polypeptide 19, six amino acid substitutions]” was tested. Which “avidity relative to human polypeptide 19” value (inferred from concentration range of response) did it give?
Answer: higher avidity

Question: And the “recognition by Pr131 CD4 T-cell line raised with polypeptide 19” value (line developed by repeated stimulation with polypeptide 19)?
Answer: recognized

Question: What about the “response of Pr131 CD4 T-cell line stimulated with irradiated autologous PBMC” value (seen in a broader range of concentration) of the same sequence?
Answer: strong response
